According to PMC5498548:
Values after ≈ are worked out from the molar mass of the structure shown. Values joined by “and” are separate entries in the source; they are usually repeats but may differ in a detail not shown here. Equal entries are not always repeated. “Also recorded” adds a separate entry of the source. Structures can show the parent of a compound that is named as a salt. Where two headings read alike, the source gives them in different places.

T1: IdeR (Mycobacterium tuberculosis, UniProt P9WMH1 1-230)
T1 sequence: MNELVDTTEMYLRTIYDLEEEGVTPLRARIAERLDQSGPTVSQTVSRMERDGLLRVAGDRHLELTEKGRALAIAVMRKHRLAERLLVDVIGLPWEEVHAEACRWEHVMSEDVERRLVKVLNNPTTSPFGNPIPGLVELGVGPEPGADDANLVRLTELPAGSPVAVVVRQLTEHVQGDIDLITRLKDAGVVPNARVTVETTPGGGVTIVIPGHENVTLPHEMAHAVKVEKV


Experiments:
[1] = tested on: HEK (Human Embryonic Kidney cell line); assay: Cytotoxicity by REMA in HEK; format: cell-based; settings: 1-200 µg/ml; for IC50: Homo sapiens, read-out: Inhibition in HEK (IC50 in µg/ml)
Protocol: (§1) The cytotoxicity of the compounds was determined by employing REMA using various mammalian cell lines such as THP-1 (human monocytic macrophage cell line), HEK (Human Embryonic Kidney cell line), MDCK (Madine darby canine kidney cell line) and HepG2 (Human hepatocellular carcinoma cell line). 1 × 10^4 cells/well were employed in a sterilized 96-well plate containing serial dilutions of compounds ranging from 1 µg/ml to 200 µg/ml concentration, in their respective media (RPMI for THP-1, DMEM for HEK and HepG2 and MEM for MDCK) with 10% fetal bovine serum and Antibiotic-Antimycotic mix (Invitrogen Corporation, Carlsbad, California, USA). IC50 is defined as the concentration of the compound that causes 50% reduction in the fluorescence intensity indicating 50% viable cells. IC50 values were determined from the results of at least two independent tests and Mean ± S.E.M was calculated from the inhibition curve using GraphPad Prism 5.

M. tuberculosis = assay: Resazurin microtiter assay (REMA) whole cell MIC90 in broth culture; format: cell-based, Mycobacterium tuberculosis; settings: MB7H9 medium, Mean ± S.E., three experiments; for MIC90: Mycobacterium tuberculosis, read-out: MIC90 of compounds against M. tuberculosis
IdeR [2] = molecular target: T2, IdeR (Mycobacterium tuberculosis, UniProt P9WMH1); assay: biochemical; settings: EMSA
[3] = tested on: HepG2 (Human hepatocellular carcinoma cell line); assay: Cytotoxicity by REMA in HepG2; format: cell-based; settings: for Inhibition in HepG2 (IC50 in µg/ml): 1-200 µg/ml; for IC50: Homo sapiens, HepG2, 1-200 µg/ml, read-out: Inhibition in HepG2 (IC50 in µg/ml)
Protocol: as §1

[4] = tested on: MDCK (Madine darby canine kidney cell line); assay: Cytotoxicity by REMA in MDCK; format: cell-based; settings: 1-200 µg/ml; for IC50: Canis lupus familiaris, MDCK, read-out: Inhibition in MDCK (IC50 in µg/ml)
Protocol: as §1

[5] = tested on: THP-1 (human monocytic macrophage cell line); assay: Cytotoxicity by REMA in THP-1; format: cell-based; settings: for Inhibition in THP1 (IC50 in µg/ml): 1-200 µg/ml; for IC50: Homo sapiens, THP-1, 1-200 µg/ml, read-out: Inhibition in THP1 (IC50 in µg/ml)
Protocol: as §1

IdeR [6] = molecular target: T2, IdeR; assay: EMSA competition experiments with increasing labeled DNA; format: biochemical; settings: DNA 0.8 pmoles to 12.8 pmoles
IdeR [7] = molecular target: T2, IdeR; assay: EMSA with Fe2+ instead of Ni2+: effect of iron on inhibition; format: biochemical; settings: 100 µM Fe2+, 100 µg/ml compound
[8] = tested on: intracellular M. tuberculosis H37Rv; assay: Inhibition of intracellular M. tuberculosis in PMA activated THP-1 cells, spotting on agar plates; format: cell-based, Mycobacterium tuberculosis
IdeR [9] = molecular target: T1, IdeR; assay: EMSA; settings: protein: recombinant; tags: vector pET28c NdeI/HindIII (His-tag, Ni-NTA purified); C-terminal streptactin tag from reverse primer; chain copies: 4; label: Cy5 at 5' end of both strands; blunt (only sense strand printed)
[10] = 0.35 µg IdeR, 0.8 picomoles labeled DNA, 200 µM NiSO4, inhibitor 0.4-100 µg/ml, read-out: IC50 (µg/ml) (converted)
[11] = same values given in µM, read-out: IC50
[12] = at 500 μg/ml (highest concentration tested), infected THP-1, 5 days
[13] = at concentrations lower than 500 μg/ml (100 to 400 μg/ml), infected THP-1
[14] = 0.35 µg IdeR, 0.8 picomoles labeled DNA, 200 µM NiSO4, inhibitor 0.4-100 µg/ml

Molecule	IC50 [1]	MIC90 (M. tuberculosis)	IC50 (IdeR [2]; [10])	IC50 (IdeR [2]; [11])	IC50 [3]	IC50 [4]	IC50 [5]	mode of inhibition in competition with DNA (IdeR [6])	further results
Nc1ccc(-c2nc3ccccc3s2)cc1 [IS-54, 4-(1,3-benzothiazol-2-yl)aniline]	161 ± 4.22 µg/mL (≈ 712 µM)	84.8 mg/L (≈ 375 µM)	49.5 µM	49.6 µM	167 ± 3.78 µg/mL (≈ 740 µM)	174 ± 6.4 µg/mL (≈ 770 µM)	182 ± 5.2 µg/mL (≈ 802 µM)		Inhibition in HEK (IC50 in µg/ml) [1]: slight toxicity; MIC90 of compounds against M. tuberculosis (M. tuberculosis): 84.8 ± 8 mg/L; Inhibition in HepG2 (IC50 in µg/ml) [3]: slight toxicity; Inhibition in MDCK (IC50 in µg/ml) [4]: slight toxicity; Inhibition in THP1 (IC50 in µg/ml) [5]: slight toxicity
COc1ccc(-c2nc3ccccc3s2)cc1S(=O)(=O)O [IS-4, 5-(1,3-benzothiazol-2-yl)-2-methoxybenzenesulfonic acid]	164.7 ± 1.24 µg/mL (≈ 512 µM)	100 mg/L (≈ 311 µM)	45.1 µM	42.1 µM	176.3 ± 1.6 µg/mL (≈ 549 µM)	173 ± 2.3 µg/mL (≈ 538 µM)	166 ± 3.72 µg/mL (≈ 516 µM)		Inhibition in HEK (IC50 in µg/ml) [1]: slight toxicity; Inhibition in HepG2 (IC50 in µg/ml) [3]: slight toxicity; Inhibition in MDCK (IC50 in µg/ml) [4]: slight toxicity; Inhibition in THP1 (IC50 in µg/ml) [5]: slight toxicity
CO[C@H]1/C=C/O[C@@]2(C)Oc3c(C)c(O)c4c(O)c(c(/C=N/N5CCN(C)CC5)c(O)c4c3C2=O)NC(=O)/C(C)=C\C=C\[C@H](C)[C@H](O)[C@@H](C)[C@@H](O)[C@@H](C)[C@H](OC(C)=O)[C@@H]1C [Rifampicin, reference compound]	> 100 µg/mL	0.05 to 0.2 mg/L (≈ 0.0608 to 0.243 µM)			> 100 µg/mL	> 100 µg/mL	> 100 µg/mL		
Cc1ccc(C2=Nc3c(c(C)nn3-c3ccccc3)N=C(C(=O)O)C2)cc1 [Compound I-34, 3-methyl-7-(4-methylphenyl)-1-phenyl-1,6-dihydropyrazolo[3,4-b][1,4]diazepine-5-carboxylic acid]	> 200 µg/mL	86.6 mg/L (≈ 242 µM)	≤ 69.8 µM and 17 µM and 16.7 µM	17 µM	> 200 µg/mL	> 200 µg/mL	> 200 µg/mL	competing with DNA	MIC90 of compounds against M. tuberculosis (M. tuberculosis): 86 mg/L and 86.6 ± 7.8 mg/L; effect of iron on the inhibitory potential (IdeR [7]): no effect; growth of intracellular M. tuberculosis on agar plates [8, 12]: negligible inhibition; also recorded: unable to limit the growth of intracellular bacteria; growth of intracellular M. tuberculosis on agar plates [8, 13]: unaffected
Nc1ccc(-c2nc3ccccc3s2)cc1S(=O)(=O)O [Compound I-8, 2amino-5-(1,3-benzothiazol-2-yl) benzene sulfonic acid ammoniate]			≤ 81.6 µM and 78 µM	74 µM				competing with DNA	MIC90 of compounds against M. tuberculosis (µg/ml) (M. tuberculosis): no inhibition
Cc1nn(-c2ccccc2)c2c1N=C(C(=O)O)CC(c1ccccc1)=N2 [Compound I-33, 3-methyl-1,7-diphenyl-1,6-dihydropyrazolo[3,4-b][1,4]diazepine-5-carboxylic acid]	> 200 µg/mL	93.3 mg/L (≈ 271 µM)	63 µM and 63.1 µM	63 µM	> 200 µg/mL	> 200 µg/mL	> 200 µg/mL		MIC90 of compounds against M. tuberculosis (M. tuberculosis): 93 mg/L and 93.3 ± 8.16 mg/L; growth of intracellular M. tuberculosis on agar plates [8, 12]: negligible inhibition; growth of intracellular M. tuberculosis on agar plates [8, 13]: unaffected
Oc1ccc(/C=N\c2ccccc2/N=C\c2ccc(O)c(O)c2)cc1O [Compound I-103, 4,4`-{benzene-1,2-diylbis[nitrilo(Z)methylylidene]}dibenzene-1,2-diol]			95.6 µM	95.6 µM					
O=C(O)C1(Cc2ccc(O)c(O)c2)NCCS1 (stereo not shown) [Compound I-20, 2-(3,4-dihydroxybenzyl)-1,3-thiazolidine-2-carboxylic acid]			9.56 µM	9.56 µM				competing with DNA	effect of iron on the inhibitory potential (IdeR [7]): no effect
Oc1ccccc1C=Nc1ccccc1N=Cc1ccccc1O [IS-47]				266 µM					IC50 (IdeR [2]; [14]): 84 ± 1.2 mg/L
Nc1ccc(N=Nc2ccc(N=Nc3ccc(N=Nc4cc(S(=O)(=O)O)c5ccccc5c4O)c4ccc(S(=O)(=O)O)cc34)c3ccc(S(=O)(=O)O)cc23)cc1 [IS-8, 1-Naphthalenesulfonic acid, 3-[[4-[[4-[(4-aminophenyl)azo]-6-sulfo-1-naphthalenyl]azo]-6-sulfo-1-naphthalenyl]azo]-4-hydroxy-,trisodium salt]			0.813 µM and 0.822 µM	0.75 µM					
CC(NCc1c(O)ccc2ccc(=O)oc12)C(=O)O (stereo not shown) [Compound I-39]			53.9 µM	54 µM				competing with DNA	
Cc1ccc(S(=O)(=O)C2CC(=O)N(c3ccc(F)c(Cl)c3)C2=O)cc1 (stereo not shown) [Compound I-108, 1-(3-chloro-4-fluorophenyl)-3-[(4-methylphenyl)sulfonyl]pyrrolidine-2,5-dione]	> 200 µg/mL	17.5 mg/L (≈ 45.8 µM)	62.9 µM and 63.6 µM	63.6 µM	> 200 µg/mL	> 200 µg/mL	168 ± 5.6 µg/mL (≈ 439 µM)		MIC90 of compounds against M. tuberculosis (M. tuberculosis): 17.5 ± 3.06 mg/L; Inhibition in THP1 (IC50 in µg/ml) [5]: slight toxicity; growth of intracellular M. tuberculosis on agar plates ([8]; at 150 μg/ml and 125 μg/ml, infected THP-1, 5 days): only a few pin pointed colonies; also recorded: pin point colonies; also recorded: able to limit the growth of intracellular bacteria; growth of intracellular M. tuberculosis on agar plates ([8]; at lower concentrations (100 to 25 μg/ml), infected THP-1, 5 days): prominent growth of bacilli
O=S(=O)(O)c1ccc2c(N=Nc3cccc4ccccc34)c(O)c(S(=O)(=O)O)cc2c1 [IS-45, 2,7-naphthalenedisulfonic acid, 3-hydroxy-4-(1-napthalenylazo)]				40 µM					IC50 (IdeR [2]; [14]): 20.19 ± 1.74 mg/L
NC(CC(=O)O)C(=O)OCc1cccc(/N=N/c2ccccc2)c1 (stereo not shown) [Compound I-21]			16.7 µM	16.8 µM				competing with DNA	
O=C1OC(C=Cc2ccccc2)=NC1=Cc1cccc([N+](=O)[O-])c1 [Compound I-18, 4-(3-nitrobenzylidene)-2-[2-phenylethenyl]-1,3-oxazol5(4H)-one]			43.7 µM	43.7 µM					
O=S(=O)([O-])c1cc(N=Nc2c(O)ccc3ccccc23)c2c(S(=O)(=O)[O-])cccc2c1.[Na+].[Na+] [IS-9, 8-[-(2-hydroxynaphthalen-1-yl)diazenyl]naphthalene-1,6-disulfonic acid, disodium salt]				27.6 µM					IC50 (IdeR [2]; [14]): 13.9 ± 7.37 mg/L
O=C1N[C@H]2CCCC[C@@H]2C(=O)N1OS(=O)(=O)c1ccccc1 [Compound I-91, (4As,8As)-3-[(phenylsulfonyl)oxy]hexahydroquinazoline-2,4(1H,3H)-dione]			231 µM	231 µM					
O=S(=O)(O)c1ccc(O)c(N=Nc2c(O)ccc3ccccc23)c1 [Compound I-42, Benzene sulfonic acid,4-hydroxy-3-[(2-hydroxy-1-naphthalenyl)azo]-monosodium salt]			≤ 72.6 µM and 2.9 µM	2.72 µM				competing with DNA	effect of iron on the inhibitory potential (IdeR [7]): no effect
mbtA-mbtB intergenic IdeR binding region oligo (dsDNA) DNA 1: CCCTGTTAGCACAGGCTGCCCTAATTTTAGTG DNA 2: CACTAAAATTAGGGCAGCCTGTGCTAACAGGG									binding result (IdeR [9]): binds
